Results on 58 compounds are retold here after PubChem BioAssay AID588523 (Johns Hopkins Ion Channel Center, 2011).

Activity calls are given as the source filed them.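 The calls were made as follows: active = IC50 below 100 µM from duplicate concentration-response curves; inactive = IC50 above 100 µM.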 Where only a bound is given, the exact number is not on record here.

What is called IC50 is the concentration needed to halve the response being measured.

Chain of Regulator of G-protein signaling 4 (Rattus norvegicus) (P49799 whole entry, looked up): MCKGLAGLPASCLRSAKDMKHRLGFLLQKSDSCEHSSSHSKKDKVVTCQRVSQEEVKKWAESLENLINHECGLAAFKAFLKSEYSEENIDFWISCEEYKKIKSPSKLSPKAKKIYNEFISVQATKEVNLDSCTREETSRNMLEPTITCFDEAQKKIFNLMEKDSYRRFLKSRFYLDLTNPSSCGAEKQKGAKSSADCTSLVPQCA

This assay addresses Regulator of G-protein signaling 4 (Rattus norvegicus) (UniProt P49799). Briefly: inhibitors of RGS4–Galphao protein interaction, dose response, biochemical, rat RGS4, AlF4-dependent, flow cytometry bead assay (AID 588523). To be noted: FCPIA, RGS4-Galpha-o binding, bead fluorescence. Background: Flow cytometry measures light scatter and fluorescence of single cells or particles in a stream.
`O=C(N/N=C/c1cc([N+](=O)[O-])ccc1O)NC12CC3CC(CC(C3)C1)C2`: the IC50 is > 110 µM (inactive).
With `COc1cc2c(cc1O)C(SC)=NC(C)(C)C2`, the IC50 was > 110 µM (inactive).
Turning to `CN1C/C(=C/c2ccncc2)C(=O)/C(=C/c2ccncc2)C1`, the IC50 was 5.4 µM.
Turning to `CN(C)C(=O)COc1ccc(C(=O)/C=C/c2cccnc2)cc1`, the IC50 is > 110 µM (inactive).
As for `Cc1ccccc1OCc1nnc(SCC(=O)Nc2ccc3c(c2)oc2ccccc23)n1C`, the IC50 was > 110 µM (inactive).
The value for `NC(=O)N/N=C/c1c(Sc2nnnn2-c2ccccc2)nc2ccccn2c1=O` was > 110 µM (inactive).
Take `O=C1/C(=C\c2ccc(Cl)c(Cl)c2)N2CCC1CC2`: the IC50 was > 110 µM (inactive).
In the case of `O=[N+]([O-])c1ccc(O)c(/C=N/NC(=S)Nc2ccc(Cl)cc2Cl)c1`, the IC50 was > 110 µM (inactive).
For the compound `Cc1ccc(C(C2=C(O)CC(C)(C)CC2=O)C2C(=O)CC(C)(C)CC2=O)o1` (stereo not drawn), the IC50 was > 110 µM (inactive).
Take `O=C(O)c1ccc2c(c1)C(=O)N(c1cccc(C(=O)/C=C/c3ccccc3)c1)C2=O`: the IC50 is > 110 µM (inactive).
Take `Cc1cc(-c2n[nH]c(=S)n2/N=C/C(Br)=C/c2ccccc2)n[nH]1`: the IC50 is 26.1 µM.
`CN(C)c1ccc(C(C[N+](=O)[O-])c2c(N)n(C)c(=O)n(C)c2=O)c(F)c1C#N` (stereo not drawn): the IC50 was > 110 µM (inactive).
On to `CCCN1CCc2cc(O)cc3c2[C@H]1Cc1ccc(O)c(O)c1-3`, for which the IC50 was 9.4 µM.
Regarding `O=C(O)c1ccc(/C=C/C(=O)c2ccc3c(c2)OCCCO3)cc1`, the IC50 was > 110 µM (inactive).
Take `CCOC(=O)/C=C/C(=O)OCC(=O)N1CCN(C(=O)c2ccco2)CC1`: the IC50 was 73.9 µM.
The value for `N#C/C(=C/c1ccc(Cl)c([N+](=O)[O-])c1)c1ccccn1` was > 110 µM (inactive).
With `COc1ccc(OC)c(N2C(=O)NC(=O)/C(=C/c3ccc([N+](=O)[O-])s3)C2=O)c1`, the IC50 was 11.9 µM.
For `O=C1/C(=C/c2ccncc2)CCC/C1=C\c1ccncc1`, the 50% inhibitory concentration (IC50) is 13.6 µM.
Consider `COC(=O)CSc1[nH]c2cc(C)ccc2c1[N+](=O)[O-]`, for which the IC50 was > 110 µM (inactive).
With `Cc1c(NC(=O)c2coc(=O)c(Br)c2)c(=O)n(-c2ccccc2)n1C` the figure was > 110 µM (inactive); with `CC(C)(C)c1ccc(Cn2nnc3c(=O)[nH]c(C4CCN(C(=O)Cc5cccs5)CC4)nc32)cc1`, > 110 µM (inactive).
As for `O=C1N=c2ccccc2=C1c1c(O)n(-c2cccc(F)c2)[nH]c1=O`, the IC50 is 10.3 µM.
Turning to `CN1C(=O)/C(=C\c2ccc(Br)s2)C(=O)NC1=S`, the half-maximal inhibitory concentration (IC50) was 12.5 µM.
The value for `CN(C)c1oc(-c2ccccc2[N+](=O)[O-])nc1C#N` was > 110 µM (inactive); that for `O=C(/C=C/c1ccncc1)c1ccc2c(c1)OCCO2` was 82.2 µM.
For the compound `Cc1csc(NC(=O)COCC(=O)O)c1-c1nc2ccccc2s1`, the IC50 is > 110 µM (inactive).
As to `O=C(CCNc1ccc(F)cc1)c1ccco1`, the IC50 was > 110 µM (inactive).
The value for `CCOCCCNC(=O)/C(C#N)=C\c1ccc([N+](=O)[O-])o1` was > 110 µM (inactive).
`Cn1c(OCc2ccco2)nc2c1c(=O)n(Cc1ccc(Cl)c(Cl)c1)c(=O)n2C`: the IC50 is > 110 µM (inactive).
Regarding `CCOC(=O)C1=C(O)/C(=C\c2cccc(OC)c2)N=C1C`, the IC50 is > 110 µM (inactive).
For `O=C1/C(=C\c2ccc(Cl)cc2Cl)N2CCC1CC2`, the IC50 was > 110 µM (inactive).
Turning to `CN1C(=O)S/C(=C\c2ccccc2OCc2ccc(C(=O)O)cc2)C1=O`, the IC50 was > 110 µM (inactive).
For the compound `COC(=O)CSc1[nH]c2ccccc2c1[N+](=O)[O-]`, the IC50 is > 110 µM (inactive).
The value for `N[C@@H](Cc1cc(Br)c(O)c(Br)c1)C(=O)O` was > 110 µM (inactive).
Regarding `O=C/C=C/c1c(-c2ccccc2)cc2oc3ccccc3cc1-2`, the IC50 was > 110 µM (inactive).
`Cc1ccc(C(C2C(=O)CC(C)(C)CC2=O)C2C(=O)CC(C)(C)CC2=O)s1`: the concentration for half-maximal inhibition (IC50) is 86.8 µM.
Take `COc1ccc(-c2csc(NC3OC(=O)c4c3ccc(OC)c4OC)n2)cc1OC` (stereo not drawn): the IC50 is > 110 µM (inactive).
With `COc1ccc2cc(C3C(C#N)=C(N)OC(C)=C3C(C)=O)c(Cl)nc2c1` (stereo not drawn) the figure was > 110 µM (inactive); with `CC1=NN(c2ccc(C(=O)O)cc2)C(=O)/C1=C\c1ccc(OC(=O)c2cccs2)cc1`, 44 µM.
For the compound `CN1CCc2cc(O)cc3c2[C@H]1Cc1ccc(O)c(O)c1-3`, the half-inhibitory concentration (IC50) was 7.5 µM.
With `O=C1C=C(NC2=CC3OC(c4ccccc4)OCC3OC2=O)CCC1` (stereo not drawn) the figure was > 110 µM (inactive).
With `CC1=NOC(=O)/C1=C/c1ccc(O)cc1` the figure was > 110 µM (inactive).
The value for `Cc1ccc(/C=C/C(=O)N2CC(C)CC(C)C2)o1` (stereo not drawn) was 74.9 µM; that for `Cc1cc2nc(CS)[nH]c2cc1C` was 23.6 µM.
As to `CCOCCCNC(=O)/C(C#N)=C\c1ccc(Cl)c([N+](=O)[O-])c1`, the IC50 was > 110 µM (inactive).
With `COc1cccc(/C=C/C(=O)c2c(O)cc(C)oc2=O)c1O`, the IC50 was > 110 µM (inactive).
Regarding `Cc1ccc(CNC(=O)c2cn(C3CCCCC3)c(=O)c3c2c2ccccc2n3C)o1`, the IC50 is > 110 µM (inactive).
With `COc1ccc(C(C[N+](=O)[O-])c2c(-c3ccccc3)cc3ccccn23)cc1OC` (stereo not drawn), the IC50 was > 110 µM (inactive).
The value for `O=C1NC(=S)N(c2ccccc2F)C(=O)/C1=C\c1cccs1` was 21.3 µM; that for `Cc1cccc(N2C(=O)/C(=C/c3ccc(C(=O)O)cc3)c3ccccc3C2=O)c1` was > 110 µM (inactive).
As for `O=C(O)c1ccc(/C=C2\COc3ccccc3C2=O)cc1`, the IC50 was > 110 µM (inactive).
Consider `COc1ccc(NC(=O)/C(Cl)=C(/Cl)S(=O)Cc2ccccc2)cn1` (stereo not drawn), for which the IC50 was 1.7 µM.
With `CC(C)OP(=O)(OC(C)C)/C(C=O)=N\Nc1ccc([N+](=O)[O-])cc1` the figure was > 110 µM (inactive).
As for `Cc1nc2c(=O)n(C)c(=O)n(C)c2nc1Cl`, the IC50 is 78.7 µM.
With `O=C(/C=C/c1ccc([N+](=O)[O-])cc1)c1ccco1`, the IC50 is > 110 µM (inactive).
With `Cc1ccc(/C=C2\C(=O)NC(=S)N(c3ccc(F)cc3)C2=O)s1`, the IC50 was 22.1 µM.
With `COc1ccc(NC(=O)/C(C#N)=C\c2ccc(Sc3nncn3C)c([N+](=O)[O-])c2)cc1` the figure was > 110 µM (inactive); with `Oc1c(Cl)cc(Cl)c2c1NCCC2`, > 110 µM (inactive).
